Assay results: patent publication US9518022B2, “Anti-HIV compounds” (priority 2014, dated 2016)
Read-outs that look alike come from different tables or passages of the source.

Experiment: Cytotoxicity assay (AlamarBlue) in mock infected MT-2 cells
Assay type: cell-based
Conditions: human
In short: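 MT-2 cells at 2×10^4 cells/well, mock-infected, treated with 3-fold serial compound dilutions for 96 h at 37 °C. AlamarBlue added for 3 h, fluorescence read at 545/590 nm; % inhibition versus solvent control fitted to a 4-parameter logistic to give CC50.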

[1] = mock infected MT-2 cells, 96 hours, AlamarBlue, read-out: CC50

SMILES | CC50 at 96 h | CC50 at 96 h [1]
COc1cc2c(cc1OCc1ccccc1)CCNC2/C=C/c1ccccc1C(=O)O (stereo not drawn) [ES, 2-[(E)-2-[6-(benzyloxy)-7-methoxy-1,2,3,4-tetrahydroisoquinolin-1-yl]ethenyl]benzoic acid] | 10 µM | 
CCOC(=O)c1ccccc1/C=C/C1NCCc2cc(OCc3ccccc3)c(OC)cc21 (stereo not drawn) [ET, ethyl 2-[(E)-2-[6-(benzyloxy)-7-methoxy-1,2,3,4-tetrahydroisoquinolin-1-yl]ethenyl]benzoate] | 9.9 µM | 
COc1ccc(CCC2NCCc3cc(OC)c(OC)cc32)cc1OC (stereo not drawn) [Example A, 1-[2-(3,4-Dimethoxyphenyl)ethyl]-6,7-dimethoxy-1,2,3,4-tetrahydroisoquinoline] | > 10 µM | 
CCc1cc(OC)c(OCc2ccccc2)cc1/C=C/C1NCCc2cc(OCc3ccccc3)c(OC)cc21 (stereo not drawn) [Example AA, 6-benzyloxy-1-[(E)-2-(5-benzyloxy-2-ethyl-4-methoxy-phenyl)vinyl]-7-methoxy-1,2,3,4-tetrahydroisoquinoline] | 3.89 µM | 
COc1ccc(/C=C/C2NCCc3cc(OCc4ccccc4)c(OC)cc32)cc1OCc1ccccc1 (stereo not drawn) [Example AB, 6-benzyloxy-1-[(E)-2-(3-benzyloxy-4-methoxy-phenyl)vinyl]-7-methoxy-1,2,3,4-tetrahydroisoquinoline] |  | 3.96 µM
COc1cc(Cl)c(/C=C/C2NCCc3cc(OCc4ccccc4)c(OC)cc32)cc1OCc1ccccc1 (stereo not drawn) [Example AC, 6-benzyloxy-1-[(E)-2-(5-benzyloxy-2-chloro-4-methoxy-phenyl)vinyl]-7-methoxy-1,2,3,4-tetrahydroisoquinoline] | 1.9 µM | 
COc1cc2c(cc1OCc1ccccc1)CCNC2/C=C/c1cc(OCc2ccccc2)ccc1C (stereo not drawn) [Example AD, 6-benzyloxy-1-[(E)-2-(5-benzyloxy-2-methyl-phenyl)vinyl]-7-methoxy-1,2,3,4-tetrahydroisoquinoline] | 3.22 µM | 
COc1cc(C)c(/C=C/C2=NCCc3cc(OCc4ccccc4)c(OC)cc32)cc1OCc1ccccc1 [Example AE, 6-benzyloxy-1-[(E)-2-(5-benzyloxy-4-methoxy-2-methyl-phenyl)vinyl]-7-methoxy-3,4-dihydroisoquinoline] | 33.5 µM | 
COc1ccc(/C=C/C2NCCc3cc(OCc4ccccc4)c(OC)cc32)c(C)c1 (stereo not drawn) [Example AG, 6-benzyloxy-7-methoxy-1-[(E)-2-(4-methoxy-2-methyl-phenyl)vinyl]-1,2,3,4-tetrahydroisoquinoline] | 9.83 µM | 
COc1cc(C)c(/C=C/C2NCCc3cc(OCc4ccccc4)c(OC)cc32)cc1OC (stereo not drawn) [Example AH, 6-benzyloxy-1-[(E)-2-(4,5-dimethoxy-2-methyl-phenyl)vinyl]-7-methoxy-1,2,3,4-tetrahydroisoquinoline] | 2.4 µM | 
COCCCCOc1cc(OC)ccc1/C=C/C1NCCc2cc(OCc3ccccc3)c(OC)cc21 (stereo not drawn) [Example AI, (E)-6-(benzyloxy)-7-methoxy-1-(4-methoxy-2-(4-methoxybutoxy)styryl)-1,2,3,4-tetrahydroisoquinoline] | 5.6 µM | 
COc1cc2c(cc1OCc1ccccc1)CCNC2/C=C/c1ccc(OC(F)(F)F)cc1C (stereo not drawn) [Example AJ, (E)-6-(benzyloxy)-7-methoxy-1-(2-methyl-4-(trifluoromethoxy)styryl)-1,2,3,4-tetrahydroisoquinoline] | 5 µM | 
COc1cc2c(cc1OCc1ccccc1)CCNC2/C=C/c1ccnn1C (stereo not drawn) [Example AK, 6-benzyloxy-7-methoxy-1-[(E)-2-(2-methylpyrazol-3-yl)vinyl]-1,2,3,4-tetrahydroisoquinoline] | 10 µM | 
CCn1cc(/C=C/C2NCCc3cc(OCc4ccccc4)c(OC)cc32)cn1 (stereo not drawn) [Example AL, 6-Benzyloxy-1-[(E)-2-(1-ethylpyrazol-4-yl)vinyl]-7-methoxy-1,2,3,4-tetrahydroisoquinoline] | 24.2 µM | 
COc1cc2c(cc1OCc1ccccc1)CCNC2/C=C/c1cc(OC)c(OC)c(OC)c1 (stereo not drawn) [Example AM, 6-Benzyloxy-7-methoxy-1-[(E)-2-(3,4,5-trimethoxyphenyl)vinyl]-1,2,3,4-tetrahydroisoquinoline] | 6 µM | 
COc1cc2c(cc1OCc1ccccc1)CCNC2/C=C/c1ccc(OC)c2occc12 (stereo not drawn) [Example AN, 6-Benzyloxy-7-methoxy-1-[(E)-2-(7-methoxybenzofuran-4-yl)vinyl]-1,2,3,4-tetrahydroisoquinoline] | 3.7 µM | 
COc1cc2c(cc1OCc1ccccc1)CCNC2/C=C/c1ccc(OC)c2ccoc12 (stereo not drawn) [Example AO, 6-Benzyloxy-7-methoxy-1-[(E)-2-(4-methoxybenzofuran-7-yl)vinyl]-1,2,3,4-tetrahydroisoquinoline] | 9.94 µM | 

SMILES | CC50 at 96 h | CC50 at 96 h [1]
COc1ccc(/C=C/C2c3cc(OC)c(OCc4ccccc4)cc3CCN2C(=O)c2cnccn2)cc1OCc1ccccc1 (stereo not drawn) [Example B, [6-Benzyloxy-1-[(E)-2-(3-benzyloxy-4-methoxy-phenyl)vinyl]-7-methoxy-3,4-dihydro-1H-isoquinolin-2-yl]-pyrazin-2-yl-methanone] | 5 µM | 
COc1cc2c(cc1OC)C(/C=C/c1cc(OCc3ccccc3)c(OC)cc1C)NCC2 (stereo not drawn) [Example C, 1-[(E)-2-(5-Benzyloxy-4-methoxy-2-methyl-phenyl)vinyl]-6,7-dimethoxy-1,2,3,4-tetrahydroisoquinoline] | 11 µM | 
CCCCN1CCc2cc(OC)c(OCc3ccccc3)cc2C1/C=C/c1ccc(OCc2ccccc2)c(OC)c1 (stereo not drawn) [Example D, 7-Benzyloxy-1-[(E)-2-(4-benzyloxy-3-methoxy-phenyl)vinyl]-2-butyl-6-methoxy-3,4-dihydro-1H-isoquinoline] | > 10 µM | 
COc1cc(C)c(/C=C/C2c3cc(OC)c(OCc4ccccc4)cc3CCN2C)cc1OCc1ccccc1 (stereo not drawn) [Example E, 6-Benzyloxy-1-[(E)-2-(5-benzyloxy-4-methoxy-2-methyl-phenyl)vinyl]-7-methoxy-2-methyl-3,4-dihydro-1H-isoquinoline] | 7.17 µM | 
CCCCN1CCc2cc(OCc3ccccc3)c(OC)cc2C1/C=C/c1ccc(OC)c(OCc2ccccc2)c1 (stereo not drawn) [Example G, 6-Benzyloxy-1-[(E)-2-(3-benzyloxy-4-methoxy-phenyl)vinyl]-2-butyl-7-methoxy-3,4-dihydro-1H-isoquinoline] | 5 µM | 
COc1cc(C(C)(C)C)c(/C=C/C2NCCc3cc(OCc4ccccc4)c(OC)cc32)cc1OCc1ccccc1 (stereo not drawn) [Example J, 6-Benzyloxy-1-[(E)-2-(5-benzyloxy-2-tert-butyl-4-methoxy-phenyl)vinyl]-7-methoxy-1,2,3,4-tetrahydroisoquinoline] | 5.36 µM | 
COC(=O)N1CCc2cc(OCc3ccccc3)c(OC)cc2C1/C=C/c1ccc(OC)c(OCc2ccccc2)c1 (stereo not drawn) [Example L, Methyl 6-benzyloxy-1-[(E)-2-(3-benzyloxy-4-methoxy-phenyl)vinyl]-7-methoxy-3,4-dihydro-1H-isoquinoline-2-carboxylate] | > 20 µM | 
COc1cc(C)c(/C=C/C2c3cc(OC)c(OCc4ccccc4)cc3CCN2C(=O)NC(C)(C)C)cc1OCc1ccccc1 (stereo not drawn) [Example O, 6-benzyloxy-1-[(E)-2-(5-benzyloxy-4-methoxy-2-methyl-phenyl)vinyl]-N-tert-butyl-7-methoxy-3,4-dihydro-1H-isoquinoline-2-carboxamide] | > 10 µM | 
COc1cc(C)c(CCC2NCCc3cc(OCc4ccccc4)c(OC)cc32)cc1OCc1ccccc1 (stereo not drawn) [Example Q, 6-benzyloxy-1-[2-(5-benzyloxy-4-methoxy-2-methyl-phenyl)ethyl]-7-methoxy-1,2,3,4-tetrahydroisoquinoline] | 5.15 µM | 
COc1cc(C)c(/C=C/C2c3cc(OC)c(OCc4ccccc4)cc3CCN2C(N)=O)cc1OCc1ccccc1 (stereo not drawn) [Example R, 6-benzyloxy-1-[(E)-2-(5-benzyloxy-4-methoxy-2-methyl-phenyl)vinyl]-7-methoxy-3,4-dihydro-1H-isoquinoline-2-carboxamide] |  | 39.3 µM
COc1cc(/C=C/C2NCCc3cc(OC)c(OCc4ccccc4)cc32)ccc1OCc1ccccc1 (stereo not drawn) [Example S, 7-benzyloxy-1-[(E)-2-(4-benzyloxy-3-methoxy-phenyl)vinyl]-6-methoxy-1,2,3,4-tetrahydroisoquinoline] | 8.25 µM | 
COc1cc(C)c(/C=C/C2c3cc(OC)c(OCc4ccccc4)cc3CCN2C(=O)c2ccncc2)cc1OCc1ccccc1 (stereo not drawn) [Example U, [6-benzyloxy-1-[(E)-2-(5-benzyloxy-4-methoxy-2-methyl-phenyl)vinyl]-7-methoxy-3,4-dihydro-1H-isoquinolin-2-yl]-(4-pyridyl)methanone] | > 100 µM | 
COc1ccc(/C=C/C2c3cc(OC)c(OCc4ccccc4)cc3CCN2C)cc1OCc1ccccc1 (stereo not drawn) [Example V, 6-benzyloxy-1-[(E)-2-(3-benzyloxy-4-methoxy-phenyl)vinyl]-7-methoxy-2-methyl-3,4-dihydro-1H-isoquinoline] | 6.68 µM | 
COc1cc2c(cc1OCc1ccccc1)CCNC2/C=C/c1ccccc1C (stereo not drawn) [Example W, 6-benzyloxy-7-methoxy-1-[(E)-2-(o-tolyl)vinyl]-1,2,3,4-tetrahydroisoquinoline] |  | 4 µM
COc1cc2c(cc1OCc1ccccc1)CCNC2/C=C/c1ccc(F)cc1C (stereo not drawn) [Example X, 6-benzyloxy-1-[(E)-2-(4-fluoro-2-methyl-phenyl)vinyl]-7-methoxy-1,2,3,4-tetrahydroisoquinoline] |  | 5.3 µM
COc1cc(C)c(/C=C/C2c3cc(OC)c(OCc4ccccc4)cc3CCN2C(=O)OC(C)(C)C)cc1OCc1ccccc1 (stereo not drawn) [Example Y, tert-butyl 6-benzyloxy-1-[(E)-2-(5-benzyloxy-4-methoxy-2-methyl-phenyl)vinyl]-7-methoxy-3,4-dihydro-1H-isoquinoline-2-carboxylate] | 28.1 µM | 
